Read-outs that look alike come from different tables or passages of the source.

One assay addresses PI3Kα (Homo sapiens (Human), UniProt P42336). As to the kind of experiment: Inhibition of PI3Kα efficacy assay (ADP-Glo kinase assay). Format: biochemical. The conditions noted are these: read-out: PI3Kα inhibitory activity (IC50). The essentials:
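ADP-Glo luminescent detection of ADP from PI3Kα acting on PI substrate with ATP, 60 min at RT; compounds in 8-point five-fold serial dilution from 2 mM DMSO stock. IC50 from four-parameter variable-slope fit.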

A further assay concerns the target PI3Kδ (Homo sapiens (Human), UniProt O00329). As to the kind of experiment: Inhibition of PI3Kδ efficacy assay (ADP-Glo kinase assay). It is filed as biochemical. The note with it: read-out: PI3Kδ inhibitory activity (IC50). The essentials:
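Luminescent ADP-Glo readout of PI3Kδ: after a 60 min RT reaction with PI/ATP substrate, ATP depletion (40 min) and ADP detection (40 min) steps followed. Compounds tested as eight five-fold serial dilutions; inhibition rates fitted to log(inhibitor) vs. response, variable slope, for IC50.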
(In ADP-Glo the light output rises with the ADP produced.)

The target of another assay is KRAS^G12C-SOS1 (Homo sapiens (Human), UniProt P01116, G12C). As to the kind of experiment: HTRF KRAS G12C/SOS1 binding assay. The note with it: Table 5. The method in brief: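 Compound was serially diluted five-fold over eight points, with a 2 mM DMSO stock. After anti-tag-Tb3+ and anti-tag-XL665 were added, plates were incubated 3 h at 4 °C and read by HTRF (ex 337 nm, em 620/665 nm ratio). IC50 values come from four-parameter variable-slope fits.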
Background: Time-resolved FRET reads energy transfer from a long-lived donor to a nearby acceptor.

The test system of assay [1] is MIA PaCa-2 cells (KRAS G12C mutant). As to the kind of experiment: MIA PaCa-2 cell anti-proliferation (CellTiter-Glo). Format: cell-based. The conditions noted are these: MIA Paca-2 cells, 3 days, Table 7, read-out: MIA PaCa-2 (IC50). The method in brief:
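Viable-cell luminescence (CellTiter-Glo, ≥30 min at 25 °C) measured after a 3-day, 37 °C exposure to compounds at 9 points, 4-fold spaced, in DMEM containing 10% FBS plus 2.5% horse serum. IC50 derived versus no-inhibitor wells.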
Background: In ATP-based viability assays light output follows the ATP content of the culture.

The subject of assay [2] is NCI-H358-AMGR drug-resistant cell line. As to the kind of experiment: NCI-H358-AMGR drug-resistant cell proliferation inhibitory activity test. It is filed as cell-based. The note with it: NCI-H358-AMGR drug-resistant cells, 3 days incubation, CellTiter-Glo. The essentials: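 Luminescent CellTiter-Glo read-out after 3-day, 37° C compound exposure (8 points, 5-fold series) of AMG510-resistant NCI-H358 cells plated at 4×10^3 per well.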

PI3Kδ, sequence (O00329 whole entry): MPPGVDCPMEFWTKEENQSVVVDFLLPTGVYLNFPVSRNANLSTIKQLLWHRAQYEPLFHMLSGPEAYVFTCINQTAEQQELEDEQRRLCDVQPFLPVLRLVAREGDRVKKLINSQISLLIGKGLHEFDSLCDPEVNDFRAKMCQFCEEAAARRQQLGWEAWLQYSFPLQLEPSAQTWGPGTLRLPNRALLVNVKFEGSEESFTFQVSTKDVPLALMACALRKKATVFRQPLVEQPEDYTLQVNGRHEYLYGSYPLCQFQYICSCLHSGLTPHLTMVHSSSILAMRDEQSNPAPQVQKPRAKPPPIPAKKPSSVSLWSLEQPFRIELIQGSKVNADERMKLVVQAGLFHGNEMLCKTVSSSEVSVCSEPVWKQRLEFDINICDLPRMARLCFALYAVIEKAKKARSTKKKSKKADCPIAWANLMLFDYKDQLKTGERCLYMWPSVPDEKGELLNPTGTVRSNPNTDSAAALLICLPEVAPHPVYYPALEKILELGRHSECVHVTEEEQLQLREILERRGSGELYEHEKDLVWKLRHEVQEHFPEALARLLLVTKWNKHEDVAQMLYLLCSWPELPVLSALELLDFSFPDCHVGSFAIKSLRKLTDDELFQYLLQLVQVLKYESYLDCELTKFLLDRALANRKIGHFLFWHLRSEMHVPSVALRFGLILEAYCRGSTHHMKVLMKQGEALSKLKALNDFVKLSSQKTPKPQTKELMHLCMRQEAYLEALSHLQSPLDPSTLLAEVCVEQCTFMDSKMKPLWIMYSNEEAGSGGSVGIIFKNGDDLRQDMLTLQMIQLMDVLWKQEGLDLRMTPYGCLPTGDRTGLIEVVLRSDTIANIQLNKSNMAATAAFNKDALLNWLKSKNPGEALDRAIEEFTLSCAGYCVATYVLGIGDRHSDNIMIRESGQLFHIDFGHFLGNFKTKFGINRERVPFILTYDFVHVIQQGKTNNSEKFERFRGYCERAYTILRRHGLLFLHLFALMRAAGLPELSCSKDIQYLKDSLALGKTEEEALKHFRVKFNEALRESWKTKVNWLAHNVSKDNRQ
PI3Kδ, sequence (P27986 whole entry partner): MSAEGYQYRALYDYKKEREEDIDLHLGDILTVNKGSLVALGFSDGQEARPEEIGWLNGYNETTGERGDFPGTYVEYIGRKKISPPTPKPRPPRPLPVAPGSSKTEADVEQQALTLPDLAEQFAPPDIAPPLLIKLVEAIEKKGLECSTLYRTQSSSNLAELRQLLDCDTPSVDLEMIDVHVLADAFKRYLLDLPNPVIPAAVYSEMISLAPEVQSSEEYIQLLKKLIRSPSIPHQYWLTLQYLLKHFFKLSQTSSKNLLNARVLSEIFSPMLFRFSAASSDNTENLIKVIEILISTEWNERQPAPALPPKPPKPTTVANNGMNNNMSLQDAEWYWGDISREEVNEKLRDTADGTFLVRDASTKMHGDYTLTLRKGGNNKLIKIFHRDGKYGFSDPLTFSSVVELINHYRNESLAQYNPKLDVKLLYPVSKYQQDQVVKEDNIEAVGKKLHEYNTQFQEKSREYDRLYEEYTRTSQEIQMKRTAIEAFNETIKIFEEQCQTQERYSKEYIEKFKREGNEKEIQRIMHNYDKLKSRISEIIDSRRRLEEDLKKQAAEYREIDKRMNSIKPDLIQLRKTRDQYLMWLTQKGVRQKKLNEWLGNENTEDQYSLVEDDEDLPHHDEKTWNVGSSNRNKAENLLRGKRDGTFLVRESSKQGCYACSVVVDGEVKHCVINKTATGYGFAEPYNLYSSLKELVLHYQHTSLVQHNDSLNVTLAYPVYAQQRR
PI3Kα, sequence (P42336 whole entry): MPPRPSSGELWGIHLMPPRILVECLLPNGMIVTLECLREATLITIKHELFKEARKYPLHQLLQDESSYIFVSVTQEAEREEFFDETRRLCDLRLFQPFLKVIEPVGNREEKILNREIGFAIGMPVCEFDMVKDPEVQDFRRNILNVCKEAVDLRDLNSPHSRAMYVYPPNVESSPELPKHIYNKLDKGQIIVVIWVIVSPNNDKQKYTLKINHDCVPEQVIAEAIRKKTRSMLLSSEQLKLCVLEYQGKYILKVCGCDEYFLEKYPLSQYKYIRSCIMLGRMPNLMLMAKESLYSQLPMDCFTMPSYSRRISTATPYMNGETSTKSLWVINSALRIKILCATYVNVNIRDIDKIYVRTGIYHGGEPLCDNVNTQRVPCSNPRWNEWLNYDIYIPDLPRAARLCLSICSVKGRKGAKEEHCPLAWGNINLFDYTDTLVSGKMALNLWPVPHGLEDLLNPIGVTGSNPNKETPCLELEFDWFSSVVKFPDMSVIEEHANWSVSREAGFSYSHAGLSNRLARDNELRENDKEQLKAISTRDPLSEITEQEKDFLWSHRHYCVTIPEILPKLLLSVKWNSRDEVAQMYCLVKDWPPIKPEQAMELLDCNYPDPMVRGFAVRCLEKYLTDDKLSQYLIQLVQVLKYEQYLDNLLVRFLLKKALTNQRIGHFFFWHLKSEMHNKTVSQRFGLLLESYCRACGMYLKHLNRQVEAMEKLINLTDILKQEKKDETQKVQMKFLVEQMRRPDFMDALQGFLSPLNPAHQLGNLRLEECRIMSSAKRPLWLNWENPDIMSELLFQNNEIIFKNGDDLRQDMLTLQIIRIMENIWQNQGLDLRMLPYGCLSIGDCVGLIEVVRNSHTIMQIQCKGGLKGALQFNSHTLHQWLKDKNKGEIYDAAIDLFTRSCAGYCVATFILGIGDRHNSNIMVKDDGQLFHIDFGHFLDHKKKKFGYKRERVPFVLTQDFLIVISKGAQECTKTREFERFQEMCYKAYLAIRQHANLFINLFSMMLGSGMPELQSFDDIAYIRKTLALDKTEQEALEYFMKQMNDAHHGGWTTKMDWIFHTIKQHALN
PI3Kα, sequence (P27986 whole entry partner): as the sequence (P27986 whole entry partner) above
KRAS^G12C-SOS1, sequence (P01116-2 other isoform, or with tags, fused parts or gaps G12C): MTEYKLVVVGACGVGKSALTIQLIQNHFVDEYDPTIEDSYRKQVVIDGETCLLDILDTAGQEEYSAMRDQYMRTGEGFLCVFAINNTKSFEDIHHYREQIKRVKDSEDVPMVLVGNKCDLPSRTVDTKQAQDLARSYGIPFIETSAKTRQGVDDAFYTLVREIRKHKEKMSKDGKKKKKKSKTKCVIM

The term IC50 denotes the concentration needed to halve the response being measured. `COc1ncc(-c2ccc3ncnc(N4CCN(C(=O)/C=C/C(C)=O)CC4)c3c2)cc1NS(=O)(=O)c1sc(C)nc1C` [Example 160, (E)-N-(2-methoxy-5-(4-(4-(4-oxopent-2-enoyl)piperazin-1-yl)quinazolin-6-yl)pyridin-3-yl)-2,4-dimethylthiazole-5-sulfonamide]: the IC50 at PI3Kα (Table 4) was 2 nM; at PI3Kδ (Table 4) it was 15.2 nM; at KRAS^G12C-SOS1, 169 nM; in assay [1] (Homo sapiens, 72 h), 48.4 nM; in assay [2] (72 h), 69.5 nM.

On to `COc1ncc(-c2ccc3ncnc(N4CCN(C(=O)/C=C/C(C)=O)CC4)c3c2)cc1NS(=O)(=O)c1ccc(C)cc1F` [Example 111], for which the IC50 at PI3Kα (Table 2) amounted to 8.8 nM; at PI3Kδ (Table 2), 23.2 nM; on KRAS^G12C-SOS1 it was 364 nM; in assay [1] it was 44.4 nM; in assay [2] it was 118 nM.

Turning to `COc1ncc(-c2ccc3ncnc(N4CCC5(CC4)CN(C(=O)/C=C/C(C)=O)C5)c3c2)cc1NS(=O)(=O)c1ccc(F)cc1F` [Example 20, (E)-2,4-difluoro-N-(2-methoxy-5-(4-(2-(4-oxopent-2-enoyl)-2,7-diazaspiro[3.5]nonan-7-yl)quinazolin-6-yl)pyridin-3-yl)benzenesulfonamide], the IC50 came out at 7.4 nM on PI3Kα (Table 1); 212 nM at PI3Kδ (Table 1); 239 nM at KRAS^G12C-SOS1; 64.1 nM in assay [1] (Homo sapiens, 72 h); 48.7 nM in assay [2] (72 h).

For the compound `COc1ncc(-c2ccc3ncnc(N4CCC5(CC4)CN(C(=O)/C=C/C(C)=O)C5)c3c2)cc1NS(=O)(=O)c1sc(C)nc1C` [Example 178, (E)-N-(2-methoxy-5-(4-(2-(4-oxopent-2-enoyl)-2,7-diazaspiro[3.5]nonan-7-yl)quinazolin-6-yl)pyridin-3-yl)-2,4-dimethyl-thiazole-5-sulfonamide], the IC50 at PI3Kα (Table 4) came out at 20.5 nM; at PI3Kδ (Table 4) it was 9.2 nM; at KRAS^G12C-SOS1, 213 nM; in assay [1] (Homo sapiens, 72 h) it was 43.1 nM; in assay [2] (72 h), 66.2 nM.

Regarding `COc1ncc(-c2ccc3ncnc(N4CCN(C(=O)/C=C/C(C)=O)C[C@@H]4C)c3c2)cc1NS(=O)(=O)c1ccccc1F` [Example 152, (S,E)-2-fluoro-N-(2-methoxy-5-(4-(2-methyl-4-(4-oxopent-2-enoyl)piperazin-1-yl)quinazolin-6-yl)pyridin-3-yl)benzenesulfonamide], the IC50 at PI3Kα (Table 4) is 0.28 nM; at PI3Kδ (Table 4), 15.5 nM; on KRAS^G12C-SOS1, 175 nM; in assay [1] (Homo sapiens, 72 h), 68.8 nM; in assay [2] (72 h), 62.1 nM.

On to `COc1ncc(-c2ccc3ncnc(N4CCN(C(=O)/C=C/C(C)=O)CC4)c3n2)cc1NS(=O)(=O)c1c(F)cncc1F` [Example 210, (E)-3,5-difluoro-N-(2-methoxy-5-(4-(4-(4-oxopent-2-enoyl)piperazin-1-yl)pyrido[3,2-d]pyrimidin-6-yl)pyridin-3-yl)pyridine-4-sulfonamide], for which the 50% inhibitory concentration (IC50) was 0.54 nM at PI3Kα (Table 4); 5.9 nM on PI3Kδ (Table 4); 131 nM at KRAS^G12C-SOS1; 47.7 nM in assay [1] (Homo sapiens, 72 h); 287 nM in assay [2] (72 h).

Take `COc1ncc(-c2ccc3ncnc(C4=CCN(C(=O)/C=C/C(C)=O)CC4)c3c2)cc1NS(=O)(=O)c1ccccc1F` [Example 200, (E)-2-fluoro-N-(2-methoxy-5-(4-(1-(4-oxopent-2-enoyl)-1,2,3,6-tetrahydropyridin-4-yl)quinazolin-6-yl)pyridin-3-yl)benzene-sulfonamide]: the half-maximal inhibitory concentration (IC50) on PI3Kα (Table 4) was determined as 2.3 nM; on PI3Kδ (Table 4), 9.7 nM; on KRAS^G12C-SOS1, 133 nM; in assay [1] (Homo sapiens, 72 h) it was 40.5 nM; in assay [2] (72 h) it was 6.5 nM.

Turning to `COc1ncc(-c2ccc3ncnc(N4CC5CCC(C4)N5C(=O)/C=C/C(C)=O)c3c2)cc1NS(=O)(=O)c1c(F)cc(F)cc1F` [Example 155], the IC50 on PI3Kα (Table 4) amounted to 0.3 nM; on PI3Kδ (Table 4), 53.1 nM; at KRAS^G12C-SOS1, 462 nM; in assay [1] (Homo sapiens, 72 h), 77.6 nM; in assay [2] (72 h) it was 164 nM.

Take `COc1ncc(-c2ccc3ncnc(N4CCN(C(=O)/C=C/C(C)=O)CC4)c3c2)cc1NS(=O)(=O)c1ccccc1F` [Example 91, (E)-2-fluoro-N-(2-methoxy-5-(4-(4-(4-oxopent-2-enoyl)piperazin-1-yl)quinazolin-6-yl)pyridin-3-yl)benzenesulfonamide]: the IC50 at PI3Kα (Table 2) stood at 2.6 nM; on PI3Kδ (Table 2) it was 61.5 nM; at KRAS^G12C-SOS1, 173 nM; in assay [1] (Homo sapiens, 72 h), 30.7 nM; in assay [2] (72 h) it was 83.9 nM.

In the case of `COc1ncc(-c2ccc3ncnc(C4CCN(C(=O)/C=C/C(C)=O)CC4)c3c2)cc1NS(=O)(=O)c1sc(C)nc1C` [Example 203, (E)-N-(2-methoxy-5-(4-(1-(4-oxopent-2-enoyl)piperidin-4-yl)quinazolin-6-yl)pyridin-3-yl)-2,4-dimethylthiazole-5-sulfonamide], the IC50 was determined as 2.4 nM at PI3Kα (Table 4); 10.4 nM at PI3Kδ (Table 4); 419 nM at KRAS^G12C-SOS1; 51.4 nM in assay [1] (Homo sapiens, 72 h); 5.4 nM in assay [2] (72 h).

As to `COc1ncc(-c2ccc3ncnc(N4CCN(C(=O)/C=C/C(C)=O)CC4)c3c2)cc1NS(=O)(=O)c1ccncc1C` [Example 172, (E)-N-(2-methoxy-5-(4-(4-(4-oxopent-2-enoyl)piperazin-1-yl)quinazolin-6-yl)pyridin-3-yl)-3-methyl-pyridine-4-sulfonamide], the IC50 came to 4.1 nM at PI3Kα (Table 4); 11.3 nM at PI3Kδ (Table 4); 622 nM on KRAS^G12C-SOS1; 171 nM in assay [1] (Homo sapiens, 72 h); 451 nM in assay [2] (72 h).

(Values after patent publication US20250145589A1, “PYRIDINE DERIVATIVE AND USE THEREOF” (SICHUAN HUIYU PHARMACEUTICAL CO., LTD., priority 2021, published 2025).)
